One assay has as its system P. oryzae. Conditions: cited from earlier work.
The test system of assay [1] is Xanthomonas campestris pv. campestris strain RC1. In words: Growth inhibition assay against Xcc (OD600). Conditions: LB, 27 °C, 72 h, OD 600 nm, three replicates, two independent experiments.

The source of these data is PMC9967956, “Efficacy of Trichoderma longibrachiatum Trichogin GA IV Peptaibol analogs against the Black Rot Pathogen Xanthomonas campestris pv. campestris and other Phytopathogenic Bacteria” (Microorganisms, 2023).

On to “nOct-Aib-Gly-Leu-Aib-Lys-Aib-Leu-Aib-Gly-Ile-Lol [Peptide 6]”, for which, in the assay with P. oryzae, the “Inhibition of P. oryzae” value was “strain-dependent inhibition”. Further, the “Inhibition of Xcc growth in vitro” value is reported as “partial growth inhibition effect” in assay [1] (peptide 3 µM) and “completely inhibit” in assay [1] (peptide 15 µM).
